From US20230146455A1, “TREATMENT OF INFLAMMATORY DISEASES WITH PEPTIDES AND PHARMACEUTICAL COMPOSITIONS” (Yuyu Pharma, Inc., priority 2020, published 2023)
“And” between values parts separate entries of the source, which are not always exact repeats. Identical values can stand only once. Where a SMILES comes first, the peptide text is derived from it. [ ]: non-standard residue; d: D form. Hyp = O=C(O)[C@@H]1C[C@@H](O)CN1

System: MMP-9
Assay: Example 8 main study Luminex, LPS hPBMCs: MMP-9
Format: cell-based, human
Procedure: Human PBMCs were pretreated with YY-101, YDE-011, YDE-043 or reference compound; Xiidra® at various concentration (ranging from […] to 500 nM) for 2 h before stimulation. An equal volume of 0.5% DMSO was used as a vehicle control. Then, the cells were treated with LPS at 5 ug/ml, which was selected based on the pilot study. The supernatants from treated cells were harvested at 24 h and placed in a 96 well for Luminex cytokine & chemokine profiling using a Luminex 200 multiplex assay (Luminex; R&D system, USA).
The main study arm with triplicate wells per group in a 24-well plate: • 1. Blank • 2. PBMC: 0.5% DMSO • 3. PBMC+LPS (5 ug/ml) • 4. PBMC+YY-101 500 nM • 5. PBMC+YY-101 50 nM • 6. PBMC+YY-101 5 nM • 7. PBMC+YY-101 0.5 nM • 8. PBMC+LPS (5 ug/ml)+Xiidra® 500 nM • 9. PBMC+LPS (5 ug/ml)+Xiidra® 50 nM • 10. PBMC+LPS (5 ug/ml)+Xiidra® 5 nM • 11. PBMC+LPS (5 ug/ml)+Xiidra® 0.5 nM • 12. PBMC+LPS (5 ug/ml)+Xiidra® 0.05 nM • 13. PBMC+LPS (5 ug/ml)+Xiidra® 0.005 nM • 14. PBMC+LPS (5 ug/ml)+YY-101 500 nM • 15. PBMC+LPS (5 ug/ml)+YY-101 50 nM • 16. PBMC+LPS (5 ug/ml)+YY-101 5 nM • 17. PBMC+LPS (5 ug/ml)+YY-101 0.5 nM • 18. PBMC+LPS (5 ug/ml)+YY-101 0.05 nM • 19. PBMC+LPS (5 ug/ml)+YY-101 0.005 nM • 20. PBMC+LPS (5 ug/ml)+YDE-011 500 nM • 21. PBMC+LPS (5 ug/ml)+YDE-011 50 nM • 22. PBMC+LPS (5 ug/ml)+YDE-011 5 nM • 23. PBMC+LPS (5 ug/ml)+YDE-011 0.5 nM • 24. PBMC+LPS (5 ug/ml)+YDE-011 0.05 nM • 25. PBMC+LPS (5 ug/ml)+YDE-011 0.005 nM • 26. PBMC+LPS (5 ug/ml)+YDE-043 500 nM • 27. PBMC+LPS (5 ug/ml)+YDE-043 50 nM • 28. PBMC+LPS (5 ug/ml)+YDE-043 5 nM • 29. PBMC+LPS (5 ug/ml)+YDE-043 0.5 nM • 30. PBMC+LPS (5 ug/ml)+YDE-043 0.05 nM • 31. PBMC+LPS (5 ug/ml)+YDE-043 0.005 nM
Multiplex assay was used to measure 30 cytokines and chemokines. The 1:200 diluted cell supernatant and serial dilution of the standard were dispensed into a 96 well plate at 50 ul/well. Then, the pre-mixed cocktail of antibody-coated magnetic beads was dispensed at 50 ul/well and incubated at room temperature for 2 h in a horizontal orbital microplate shaker at 800±500 rpm. The beads were washed using a magnetic device to prevent loss. The biotin-antibody was dispensed in 50 ul of each well and incubated at room temperature for 1 h in a shaker at 800±500 rpm. After washing, streptavidin-PE was added at 50 ul/well and incubated at room temperature for 30 min in a shaker under the same conditions. Finally, after washing, wash buffer (100 ul/well) was added to the plate and incubated in a shaker for 2 min. The Luminex™ 200 setting were set according to the manufacturer's protocol. The data was calculated with a standard five-parameter logistic nonlinear regression analysis of the data (xPonent software 4.2, USA). Results were presented as concentration (ng/ml or pg/ml).

[1] = PBMC + LPS(5 ug/ml), test article 0.005 nM, Mean
[2] = PBMC + LPS(5 ug/ml), test article 0.005 nM, single replicates
[3] = PBMC + LPS(5 ug/ml), test article 0.05 nM, Mean
[4] = PBMC + LPS(5 ug/ml), test article 0.05 nM, single replicates
[5] = PBMC + LPS(5 ug/ml), test article 0.5 nM, Mean
[6] = PBMC + LPS(5 ug/ml), test article 0.5 nM, single replicates
[7] = PBMC + LPS(5 ug/ml), test article 5 nM, Mean
[8] = PBMC + LPS(5 ug/ml), test article 5 nM, single replicates
[9] = PBMC + LPS(5 ug/ml), test article 50 nM, Mean
[10] = PBMC + LPS(5 ug/ml), test article 50 nM, single replicates
[11] = PBMC + LPS(5 ug/ml), test article 500 nM, Mean
[12] = PBMC + LPS(5 ug/ml), test article 500 nM, single replicates
[13] = PBMC without LPS, test article 0.5 nM, Mean
[14] = PBMC without LPS, test article 0.5 nM, single replicates (1st, 2nd)
[15] = PBMC without LPS, test article 5 nM, Mean
[16] = PBMC without LPS, test article 5 nM, single replicates (1st, 2nd)
[17] = PBMC without LPS, test article 0.05 uM, Mean
[18] = PBMC without LPS, test article 0.05 uM, single replicates (1st, 2nd)
[19] = PBMC without LPS, test article 50 nM, Mean
[20] = PBMC without LPS, test article 50 nM, single replicates (1st, 2nd)
[21] = PBMC without LPS, test article 500 nM, Mean
[22] = PBMC without LPS, test article 500 nM, single replicates (1st, 2nd)

CC(C)C[C@H](NC(=O)CNC(=O)[C@H](CC(C)C)NC(=O)[C@H](CCC(N)=O)NC(=O)CNC(=O)[C@@H]1C[C@@H](O)CN1)C(=O)N[C@@H](C)C(=O)NCC(=O)N1CCC[C@H]1C(=O)N[C@@H](CCCCN)C(=O)O [YDE-011] (H-[Hyp]GQLGLAGPK-OH)
Concentration (pg/ml), MMP-9 [1]: 4251.7 pg/mL | MFI (Bead name: MMP-9) [1]: 29.8 | Concentration (pg/ml), MMP-9 [2]: 4148.1 pg/mL and 4612.9 pg/mL and 3994.2 pg/mL | MFI (Bead name: MMP-9) [2]: 29.5 and 31.0 and 29.0 | Concentration (pg/ml), MMP-9 [3]: 4509.4 pg/mL | MFI (Bead name: MMP-9) [3]: 30.7 | Concentration (pg/ml), MMP-9 [4]: 4612.9 pg/ml (2×) and 4302.5 pg/ml | MFI (Bead name: MMP-9) [4]: 31.0 (2×) and 30.0 | Concentration (pg/ml), MMP-9 [5]: 3435.2 pg/mL | MFI (Bead name: MMP-9) [5]: 27.2 | Concentration (pg/ml), MMP-9 [6]: 3384.2 pg/mL and 3688.0 pg/mL and 3233.2 pg/mL | MFI (Bead name: MMP-9) [6]: 27.0 and 28.0 and 26.5 | Concentration (pg/ml), MMP-9 [7]: 3299.3 pg/mL | MFI (Bead name: MMP-9) [7]: 26.7 | Concentration (pg/ml), MMP-9 [8]: 1907.3 pg/mL and 3688.0 pg/mL and 4302.5 pg/mL | MFI (Bead name: MMP-9) [8]: 22.0 and 28.0 and 30.0 | Concentration (pg/ml), MMP-9 [9]: 2555.4 pg/mL | MFI (Bead name: MMP-9) [9]: 24.2 | Concentration (pg/ml), MMP-9 [10]: 2636.1 pg/mL and 3688.0 pg/mL and 1342.1 pg/mL | MFI (Bead name: MMP-9) [10]: 24.5 and 28.0 and 20.0 | Concentration (pg/ml), MMP-9 [11]: 2776.4 pg/mL | MFI (Bead name: MMP-9) [11]: 24.8 | Concentration (pg/ml), MMP-9 [12]: 4612.9 pg/mL and 931.9 pg/mL and 2784.3 pg/mL | MFI (Bead name: MMP-9) [12]: 31.0 and 18.5 and 25.0

CC(C)C[C@H](NC(=O)[C@H](CCC(N)=O)NC(=O)CNC(=O)[C@@H]1C[C@@H](O)CN1)C(=O)NCC(=O)O [YDE-043] (H-[Hyp]GQLG-OH; N-terminus and C-terminus assumed)
Concentration (pg/ml), MMP-9 [1]: 5247.2 pg/mL | MFI (Bead name: MMP-9) [1]: 33.0 | Concentration (pg/ml), MMP-9 [2]: 3994.2 pg/mL and 5555.3 pg/mL and 6192.0 pg/mL | MFI (Bead name: MMP-9) [2]: 29.0 and 34.0 and 36.0 | Concentration (pg/ml), MMP-9 [3]: 3943.4 pg/mL | MFI (Bead name: MMP-9) [3]: 28.8 | Concentration (pg/ml), MMP-9 [4]: 3994.2 pg/mL and 4148.1 pg/mL and 3688.0 pg/mL | MFI (Bead name: MMP-9) [4]: 29.0 and 29.5 and 28.0 | Concentration (pg/ml), MMP-9 [5]: 3536.4 pg/mL | MFI (Bead name: MMP-9) [5]: 27.5 | Concentration (pg/ml), MMP-9 [6]: 3688.0 pg/ml (2×) and 3233.2 pg/ml | MFI (Bead name: MMP-9) [6]: 28.0 (2×) and 26.5 | Concentration (pg/ml), MMP-9 [7]: 3842.1 pg/mL | MFI (Bead name: MMP-9) [7]: 28.5 | Concentration (pg/ml), MMP-9 [8]: 4302.5 pg/mL and 3688.0 pg/mL and 3535.8 pg/mL | MFI (Bead name: MMP-9) [8]: 30.0 and 28.0 and 27.5 | Concentration (pg/ml), MMP-9 [9]: 3892.8 pg/mL | MFI (Bead name: MMP-9) [9]: 28.7 | Concentration (pg/ml), MMP-9 [10]: 3688.0 pg/ml (2×) and 4302.5 pg/ml | MFI (Bead name: MMP-9) [10]: 28.0 (2×) and 30.0 | Concentration (pg/ml), MMP-9 [11]: 4100.4 pg/mL | MFI (Bead name: MMP-9) [11]: 29.3 | Concentration (pg/ml), MMP-9 [12]: 3688.0 pg/ml (2×) and 4925.2 pg/ml | MFI (Bead name: MMP-9) [12]: 28.0 (2×) and 32.0

CC(C)C[C@H](NC(=O)CNC(=O)[C@H](CC(=O)O)NC(=O)[C@H](CCC(N)=O)NC(=O)CNC(=O)[C@@H]1C[C@@H](O)CN1)C(=O)N[C@@H](C)C(=O)NCC(=O)N1CCC[C@H]1C(=O)N[C@@H](CCCCN)C(=O)O [YY-101] (H-[Hyp]GQDGLAGPK-OH; N-terminus and C-terminus assumed)
Concentration (pg/ml), MMP-9 [1]: 4617.5 pg/mL | MFI (Bead name: MMP-9) [1]: 31.0 | Concentration (pg/ml), MMP-9 [2]: 3688.0 pg/mL and 4925.2 pg/mL and 5239.4 pg/mL | MFI (Bead name: MMP-9) [2]: 28.0 and 32.0 and 33.0 | Concentration (pg/ml), MMP-9 [3]: 4977.8 pg/mL | MFI (Bead name: MMP-9) [3]: 32.2 | Concentration (pg/ml), MMP-9 [4]: 5239.4 pg/mL and 4925.2 pg/mL and 4768.8 pg/mL | MFI (Bead name: MMP-9) [4]: 33.0 and 32.0 and 31.5 | Concentration (pg/ml), MMP-9 [5]: 5239.4 pg/mL | MFI (Bead name: MMP-9) [5]: 33.0 | Concentration (pg/ml), MMP-9 [6]: 5239.4 pg/mL | MFI (Bead name: MMP-9) [6]: 33.0 | Concentration (pg/ml), MMP-9 [7]: 5138.2 pg/mL | MFI (Bead name: MMP-9) [7]: 32.7 | Concentration (pg/ml), MMP-9 [8]: 5239.4 pg/mL and 4302.5 pg/mL and 5872.9 pg/mL | MFI (Bead name: MMP-9) [8]: 33.0 and 30.0 and 35.0 | Concentration (pg/ml), MMP-9 [9]: 5239.9 pg/mL | MFI (Bead name: MMP-9) [9]: 33.0 | Concentration (pg/ml), MMP-9 [10]: 5239.4 pg/mL and 4925.2 pg/mL and 5555.3 pg/mL | MFI (Bead name: MMP-9) [10]: 33.0 and 32.0 and 34.0 | Concentration (pg/ml), MMP-9 [11]: 5135.8 pg/mL | MFI (Bead name: MMP-9) [11]: 32.7 | Concentration (pg/ml), MMP-9 [12]: 4612.9 pg/mL and 5239.4 pg/mL and 5555.3 pg/mL | MFI (Bead name: MMP-9) [12]: 31.0 and 33.0 and 34.0 | Concentration (pg/ml), MMP-9 [13]: 16511.2 pg/mL | MFI (Bead name: MMP-9) [13]: 66.5 | Concentration (pg/ml), MMP-9 [14]: 12836.1 pg/mL and 20186.4 pg/mL | MFI (Bead name: MMP-9) [14]: 56.0 and 77.0 | Concentration (pg/ml), MMP-9 [15]: 14148.8 pg/mL | MFI (Bead name: MMP-9) [15]: 59.8 | Concentration (pg/ml), MMP-9 [16]: 16823.6 pg/mL and 11474.0 pg/mL | MFI (Bead name: MMP-9) [16]: 67.5 and 52.0 | Concentration (pg/ml), MMP-9 [17]: 17040.0 pg/mL | MFI (Bead name: MMP-9) [17]: 68.0 | Concentration (pg/ml), MMP-9 [18]: 20901.3 pg/mL and 13178.7 pg/mL | MFI (Bead name: MMP-9) [18]: 79.0 and 57.0 | Concentration (pg/ml), MMP-9 [19]: 10636.2 pg/mL | MFI (Bead name: MMP-9) [19]: 49.5 | Concentration (pg/ml), MMP-9 [20]: 11813.2 pg/mL and 9459.2 pg/mL | MFI (Bead name: MMP-9) [20]: 53.0 and 46.0 | Concentration (pg/ml), MMP-9 [21]: 11140.0 pg/mL | MFI (Bead name: MMP-9) [21]: 51.0 | Concentration (pg/ml), MMP-9 [22]: 10126.8 pg/mL and 12153.3 pg/mL | MFI (Bead name: MMP-9) [22]: 48.0 and 54.0
